According to patent US3984395A, “Method of isolating gentamicin C2a” (Schering Corporation, priority 1974, dated 1976):
Converted amounts (≈) assume the structure as drawn.

Key:
[1] = acute intravenous LD50 in mice; conditions: mouse, in vivo, male CF-1 mice, 20 grams each
[2] = test system: Bacillus subtilis 663; assay: in vitro MIC, standard tube dilution method; assay type: cell-based; conditions: Mueller-Hinton broth, read-out: minimal inhibitory concentration (MIC)
Text: (§1) In Table 1, set forth below is shown the in vitro minimal inhibitory concentration (MIC) of gentamicin C2a against representative gram-positive and gram-negative bacteria. The results are derived using the standard tube dilution method in Mueller-Hinton broth.

[3] = test system: Escherichia coli ATCC 10536; assay: in vitro MIC, standard tube dilution method; assay type: cell-based; conditions: ATCC10536, Mueller-Hinton broth, read-out: minimal inhibitory concentration (MIC)
Text: as §1

[4] = test system: Escherichia coli JR66; assay: in vitro MIC, standard tube dilution method; assay type: cell-based; conditions: Mueller-Hinton broth, read-out: minimal inhibitory concentration (MIC)
Text: as §1

[5] = test system: Escherichia coli La290R55; assay: in vitro MIC, standard tube dilution method; assay type: cell-based; conditions: LA290R55, read-out: minimal inhibitory concentration (MIC)
Text: as §1

[6] = test system: Klebsiella pneumoniae 17; assay: in vitro MIC, standard tube dilution method; assay type: cell-based; conditions: Mueller-Hinton broth, read-out: minimal inhibitory concentration (MIC)
Text: as §1

[7] = test system: Klebsiella pneumoniae 3694; assay: in vitro MIC, standard tube dilution method; assay type: cell-based; conditions: Mueller-Hinton broth, read-out: minimal inhibitory concentration (MIC)
Text: as §1

[8] = test system: Pseudomonas aeruginosa 20; assay: in vitro MIC, standard tube dilution method; assay type: cell-based; conditions: Mueller-Hinton broth, read-out: minimal inhibitory concentration (MIC)
Text: as §1

[9] = test system: Pseudomonas aeruginosa 3223; assay: in vitro MIC, standard tube dilution method; assay type: cell-based; conditions: Mueller-Hinton broth, read-out: minimal inhibitory concentration (MIC)
Text: as §1

[10] = test system: Pseudomonas aeruginosa 762; assay: in vitro MIC, standard tube dilution method; assay type: cell-based; conditions: Mueller-Hinton broth, read-out: minimal inhibitory concentration (MIC)
Text: as §1

[11] = test system: Pseudomonas aeruginosa St 138; assay: in vitro MIC, standard tube dilution method; assay type: cell-based; conditions: ST138; Pseudomonas aeruginosa St 138 (Gentamicin resistant); Mueller-Hinton broth; read-out: minimal inhibitory concentration (MIC)
Text: as §1

[12] = test system: Pseudomonas aeruginosa Travers; assay: in vitro MIC, standard tube dilution method; assay type: cell-based; conditions: Pseudomonas aeruginosa Travers (Gentamicin resistant); Mueller-Hinton broth; read-out: minimal inhibitory concentration (MIC)
Text: as §1

[13] = test system: Salmonella typhi. B.; assay: in vitro MIC, standard tube dilution method; assay type: cell-based; conditions: Salmonella enterica, read-out: minimal inhibitory concentration (MIC)
Text: as §1

[14] = test system: Staphylococcus aureus 59N; assay: in vitro MIC, standard tube dilution method; assay type: cell-based; conditions: Mueller-Hinton broth, read-out: minimal inhibitory concentration (MIC)
Text: as §1

[15] = test system: Staphylococcus aureus 6538P; assay: in vitro MIC, standard tube dilution method; assay type: cell-based; conditions: Mueller-Hinton broth, read-out: minimal inhibitory concentration (MIC)
Text: as §1

[16] = test system: Staphylococcus aureus Ziegler; assay: in vitro MIC, standard tube dilution method; assay type: cell-based; conditions: Mueller-Hinton broth, read-out: minimal inhibitory concentration (MIC)
Text: as §1

[17] = test system: Streptococcus pyogenes C; assay: in vitro MIC, standard tube dilution method; assay type: cell-based; conditions: Mueller-Hinton broth, read-out: minimal inhibitory concentration (MIC)
Text: as §1

[18] = test system: gram-positive and gram-negative bacteria; assay: antibacterial spectrum in vitro; assay type: cell-based; conditions: compared with gentamicin C1, C1a, and C2
Text: Thus, the antiobiotic may be used for substantially the same anti-bacterial indications and in the same manner as disclosed in U.S. Pat. No. 3,091,572. For example, it is useful in wash solutions, for sanitary purposes, as in the washing of hands and the cleaning of equipment in contaminated rooms.
as §1

SMILES | LD50 [1] [mg/kg] | MIC [2] [µg/mL] | MIC [3] [µg/mL] | MIC [4] [µg/mL] | MIC [5] [µg/mL] | MIC [6] [µg/mL] | MIC [7] [µg/mL] | MIC [8] [µg/mL] | MIC [9] [µg/mL] | MIC [10] [µg/mL] | MIC [11] [µg/mL] | MIC [12] [µg/mL] | MIC [13] [µg/mL] | MIC [14] [µg/mL] | MIC [15] [µg/mL] | MIC [16] [µg/mL] | MIC [17] [µg/mL] | antibacterial spectrum in vitro [18]
CN[C@@H]1[C@@H](O)[C@@H](O[C@@H]2[C@@H](O)[C@H](O[C@H]3O[C@H]([C@@H](C)N)CC[C@H]3N)[C@@H](N)C[C@H]2N)OC[C@]1(C)O [gentamicin C2] | 83 | – | – | – | – | – | – | – | – | – | – | – | – | – | – | – | – | –
CN[C@@H]1[C@@H](O)[C@@H](O[C@@H]2[C@@H](O)[C@H](O[C@H]3O[C@H]([C@H](C)N)CC[C@H]3N)[C@@H](N)C[C@H]2N)OC[C@]1(C)O [gentamicin C2a] | 110 | 0.1 (≈ 0.216 µM) | 0.3 (≈ 0.647 µM) | 7.5 (≈ 16.2 µM) | 17.5 (≈ 37.8 µM) | 0.8 (≈ 1.73 µM) | 17.5 (≈ 37.8 µM) | 3 (≈ 6.47 µM) | 0.3 (≈ 0.647 µM) | 0.8 (≈ 1.73 µM) | > 25 | > 25 | 0.3 (≈ 0.647 µM) | 0.3 (≈ 0.647 µM) | 0.3 (≈ 0.647 µM) | 0.3 (≈ 0.647 µM) | 7.5 (≈ 16.2 µM) | substantially the same antibacterial spectrum in vitro as do gentamicin C1, C1a, and C2
